Read-outs that look alike come from different tables or passages of the source. Starred links: 1 amine or outer side, 2 acyl side, 3 side chain; linkers in the order of their positions; H or OH if unused. Non-standard residues stand in square brackets, D forms with d. Residues, ends and D or L forms follow the SMILES beside them. 2Furoyl(5-aminomethyl) = O=C(c1ccc(CN[*:1])o1)[*:2]; X2 = O=C([C@@H]1CC[C@H](CN[*:1])O1)[*:2]; X1 = O=C(C1CCC(CN[*:1])O1)[*:2]
Columns and labels:
PTC (colon) = test: MTT cytotoxicity assay, PTC cells; format: cell-based, human; conditions: human, 48 hours
Text: (§1) The following cell lines were used.

ECV-304 (endothelial) = conditions: ECV-304 cells, 48 hours, NA = Not Active
Text: Although sterile phosphate buffered saline was used to prepare each stock solution for the testing described in the following example, other diluents may be used such as buffered saline, isotonic NaCl, Ringer's solution, water, distilled water, polyethylene glycol (neat or in water), Tween in water, dimethylsulfoxide up to 50% in water, propylene glycol (neat or in water), phosphate buffered saline, balanced salt solution, glycerol, and other conventional fluids that are suitable for parentral administration. To obtain a pH in the range of approximately 3.5 to 7.0, for each stock solution, the pH can be adjusted by using 1N HCl for lowering the pH or 1N NaOH for raising the pH, although other buffers such as citrate buffer, phosphate buffer and the like or other conventional agents for adjusting the pH can be used.
The MTT assay is based on the principle of uptake of MTT [3-[4,5-dimethylthiazol-2-yl]-2,5-diphenyl tetrazolium bromide], a tetrazolium salt, by the metabolically active cells where it is metabolized by active mitochondria into a blue colored formazan product which can be read spectrophotometrically. […] The formazan crystals formed inside the cells were dissolved with a detergent comprising of 10% Sodium dodecyl sulfate and 0.01 N HCl and optical density read on a multi-scan ELISA reader. The optical density was directly proportional to the number of proliferating and metabolically active cells. The following cell lines were used. PA1(human ovary), PTC (colon), HeP-2 (larynx), MiaPaCa.2 (human pancreas), KB (oral), ECV-304 (endothelial) and HeP-G2 (liver).

HeP-2 (larynx) = test: MTT cytotoxicity assay, HeP-2 cells; format: cell-based, human; conditions: human, 48 hours
Text: as §1

[1] = system: MiaPaCa.2 (human pancreas); test: MTT cytotoxicity assay, MiaPaCa.2 cells; format: cell-based; conditions: 48 hours
Text: as §1

KB (oral) = test: MTT cytotoxicity assay, KB cells; format: cell-based, human; conditions: human, 48 hours
Text: as §1

PA1 (human ovary) = test: MTT cytotoxicity assay, PA1 cells; format: cell-based; conditions: 48 hours
Text: as §1

HeP-G2 (liver) = test: MTT cytotoxicity assay, HeP-G2 cells; format: cell-based, human; conditions: human, 48 hours
Text: as §1

| SMILES | Percent Cytotoxicity (PTC (colon); 1 nM) [%] | Percent Cytotoxicity (PTC (colon); 10 nM) [%] | Percent Cytotoxicity (PTC (colon); 100 nM) [%] | Percent Cytotoxicity (PTC (colon); 1 μM) [%] | Percent Cytotoxicity (ECV-304 (endothelial); peptide 1 nM) [%] | Percent Cytotoxicity (HeP-2 (larynx); 1 nM) [%] | Percent Cytotoxicity (HeP-2 (larynx); 10 nM) [%] | Percent Cytotoxicity (HeP-2 (larynx); 100 nM) [%] | Percent Cytotoxicity (HeP-2 (larynx); 1 μM) [%] | Percent Cytotoxicity ([1]; human, 1 nM) [%] | Percent Cytotoxicity ([1]; human, 10 nM) [%] | Percent Cytotoxicity ([1]; human, 100 nM) [%] | Percent Cytotoxicity (KB (oral); 1 nM) [%] | Percent Cytotoxicity (KB (oral); 10 nM) [%] | Percent Cytotoxicity (KB (oral); 100 nM) [%] | Percent Cytotoxicity (PA1 (human ovary); human, 1 nM) [%] | Percent Cytotoxicity (PA1 (human ovary); human, 10 nM) [%] | Percent Cytotoxicity (PA1 (human ovary); human, 100 nM) [%] | Percent Cytotoxicity (PA1 (human ovary); human, 1 μM) [%] | Percent Cytotoxicity (ECV-304 (endothelial); peptide 10 nM) [%] | also measured |
| --- | --- | --- | --- | --- | --- | --- | --- | --- | --- | --- | --- | --- | --- | --- | --- | --- | --- | --- | --- | --- | --- |
| CSCC[C@H](NC(=O)[C@@H](N)CC(C)C)C(=O)NCc1ccc(C(=O)N[C@@H](Cc2ccc(O)cc2)C(=O)N[C@@H](CC(C)C)C(=O)N[C@@H](CCCCN)C(=O)O)o1 [SEQ ID NO: 18, Leu-Met-Saa1-Tyr-Leu-Lys] (H-LM[2Furoyl(5-aminomethyl)]YLK-OH) | 19.0 ± 1.6 | 28.4 ± 1.0 | 23.9 ± 2.9 | 21.7 ± 1.5 | 11.0 ± 0.6 | 47.0 ± 4.8 | 38.3 ± 2.0 | 35.8 ± 2.4 | 32.9 ± 2.6 | 24.8 ± 2.0 | 21.0 ± 2.6 | 18.5 ± 0.6 | 15.9 ± 1.0 | 12.0 ± 0.3 | 14.0 ± 1.0 | 18.3 ± 1.8 | 22.8 ± 2.9 | 21.8 ± 2.1 | 20.3 ± 2.6 |  | Percent Cytotoxicity ([1]; human, 1 μM): 15.0 ± 0.6%; Percent Cytotoxicity (KB (oral); 1 μM): 9.3 ± 0.4% |
| CSCC[C@H](N)C(=O)NCC1CCC(C(=O)N[C@@H](Cc2ccc(O)cc2)C(=O)N[C@@H](CC(C)C)C(=O)O)O1 (stereo partly shown) [SEQ ID NO: 16, Met-Saa3-Tyr-Leu] |  |  |  |  | 9.3 ± 0.6 | 16.5 ± 1.6 | 19.2 ± 1.6 | 12.6 ± 0.5 | 10.9 ± 1.1 |  |  |  | 9.3 ± 0.3 | 9.7 ± 0.4 | 3.2 ± 0.1 | 24.0 ± 2.1 | 22.9 ± 2.1 | 19.0 ± 1.0 | 16.8 ± 1.8 | 7.9 ± 0.1 | Percent Cytotoxicity (HeP-G2 (liver); 1 nM): 11.0 ± 1.1%; Percent Cytotoxicity (HeP-G2 (liver); 10 nM): 12.8 ± 0.7%; Percent Cytotoxicity (HeP-G2 (liver); 100 nM): 11.4 ± 0.7%; Percent Cytotoxicity (HeP-G2 (liver); 1 μM): 9.8 ± 0.7% |
| CSCC[C@H](NC(=O)[C@@H](N)CC(C)C)C(=O)NCC1CCC(C(=O)N[C@H](C(=O)N[C@@H](Cc2ccc(O)cc2)C(=O)N[C@@H](CC(C)C)C(=O)N[C@@H](CCCCN)C(=O)O)[C@@H](C)O)O1 (stereo partly drawn) [SEQ ID NO: 8, Leu-Met-Saa3-Thr-Tyr-Leu-Lys] (H-LM[X1]TYLK-OH) |  |  |  |  | 15.3 ± 1.6 |  |  |  |  |  |  |  |  |  |  |  |  |  |  | 12.7 ± 1.6 | Percent Cytotoxicity (ECV-304 (endothelial); peptide 100 nM): 10.8 ± 2.9%; Percent Cytotoxicity (ECV-304 (endothelial); peptide 1 μM): 7.9 ± 0.1%; Percent Cytotoxicity ([1]; MiaPaCa.2 cells, peptide 1 nM, NA = Not Active): 22.9 ± 2.2%; Percent Cytotoxicity ([1]; MiaPaCa.2 cells, peptide 10 nM, NA = Not Active): 25.5 ± 2.9%; Percent Cytotoxicity ([1]; MiaPaCa.2 cells, peptide 100 nM, NA = Not Active): 22.9 ± 2.6%; Percent Cytotoxicity ([1]; MiaPaCa.2 cells, peptide 1 μM, NA = Not Active): 19.0 ± 0.6%; Percent Cytotoxicity (PA1 (human ovary); PA1 cells, peptide 1 nM, NA = Not Active): 12.7 ± 1.9%; Percent Cytotoxicity (PA1 (human ovary); PA1 cells, peptide 10 nM, NA = Not Active): 18.0 ± 1.0%; Percent Cytotoxicity (PA1 (human ovary); PA1 cells, peptide 100 nM, NA = Not Active): 14.8 ± 1.9%; Percent Cytotoxicity (PA1 (human ovary); PA1 cells, peptide 1 μM, NA = Not Active): 9.6 ± 1.0% |
| CSCC[C@H](NC(=O)[C@@H](N)CC(C)C)C(=O)N[C@@H](Cc1ccc(O)cc1)C(=O)NCc1ccc(C(=O)N[C@@H](Cc2ccc(O)cc2)C(=O)N[C@@H](CC(C)C)C(=O)N[C@@H](CCCCN)C(=O)O)o1 [SEQ ID NO: 10, Leu-Met-Tyr-Saa1-Tyr-Leu-Lys] (H-LMY[2Furoyl(5-aminomethyl)]YLK-OH) | 30.5 ± 3.2 | 28.0 ± 2.2 | 25.6 ± 2.2 | 21.8 ± 2.8 | 15.2 ± 1.0 | 35.4 ± 2.9 | 32.0 ± 2.1 | 31.8 ± 3.1 | 28.9 ± 2.1 | 14.9 ± 1.9 | 12.0 ± 1.7 | 9.0 ± 0.6 | 32.0 ± 2.5 | 31.9 ± 2.9 | 29.6 ± 0.7 | 37.5 ± 3.8 | 32.0 ± 2.9 | 31.0 ± 2.7 | 28.4 ± 2.2 | 12.9 ± 0.5 | Percent Cytotoxicity (ECV-304 (endothelial); peptide 100 nM): 9.4 ± 0.2%; Percent Cytotoxicity (KB (oral); 1 μM): 26.0 ± 1.8% |
| CSCC[C@H](NC(=O)[C@@H](N)CC(C)C)C(=O)N[C@@H](Cc1ccc(O)cc1)C(=O)NC[C@H]1CC[C@@H](C(=O)N[C@@H](Cc2ccc(O)cc2)C(=O)N[C@@H](CC(C)C)C(=O)N[C@@H](CCCCN)C(=O)O)O1 [SEQ ID NO: 13, Leu-Met-Tyr-Saa4-Tyr-Leu-Lys] (H-LMY[X2]YLK-OH) | 28.5 ± 2.0 | 26.0 ± 2.9 | 22.8 ± 2.1 | 20.8 ± 1.8 | 23.0 ± 1.6 | 23.0 ± 2.1 | 21.8 ± 1.8 | 17.9 ± 1.9 | 16.4 ± 0.6 | 17.5 ± 1.9 | 14.0 ± 0.6 | 8.0 ± 0.6 | 30.0 ± 2.8 | 27.9 ± 2.1 | 26.9 ± 2.1 | 44.0 ± 3.9 | 41.0 ± 4.2 | 38.0 ± 3.9 | 35.5 ± 2.4 | 21.0 ± 2.6 | Percent Cytotoxicity (ECV-304 (endothelial); peptide 100 nM): 18.0 ± 1.6%; Percent Cytotoxicity (ECV-304 (endothelial); peptide 1 μM): 12.1 ± 1.3%; Percent Cytotoxicity (KB (oral); 1 μM): 21.4 ± 2.1% |
| CSCC[C@H](NC(=O)[C@@H](N)CC(C)C)C(=O)N[C@@H](Cc1ccc(O)cc1)C(=O)NC[C@H]1O[C@H](C(=O)N[C@H](C(=O)N[C@@H](Cc2ccc(O)cc2)C(=O)N[C@@H](CC(C)C)C(=O)N[C@@H](CCCCN)C(=O)O)[C@@H](C)O)[C@@H](OCc2ccccc2)[C@@H]1OCc1ccccc1 [SEQ ID NO: 3, Leu-Met-Tyr-Saa2-Thr-Tyr-Leu-Lys] |  |  |  |  |  | 12.6 ± 2.8 | 15.4 ± 1.3 | 13.9 ± 0.5 | 10.8 ± 0.5 | 21.8 ± 2.1 | 24.0 ± 2.7 | 17.9 ± 1.8 | 12.9 ± 1.3 | 17.7 ± 0.5 | 14.9 ± 1.1 | 16.8 ± 1.4 | 18.0 ± 1.8 | 12.5 ± 0.0 | 10.8 ± 0.6 |  | Percent Cytotoxicity ([1]; human, 1 μM): 13.9 ± 0.4%; Percent Cytotoxicity (HeP-G2 (liver); 1 nM): 12.3 ± 0.4%; Percent Cytotoxicity (HeP-G2 (liver); 10 nM): 10.7 ± 0.1%; Percent Cytotoxicity (HeP-G2 (liver); 100 nM): 9.5 ± 1.0%; Percent Cytotoxicity (HeP-G2 (liver); 1 μM): 6.9 ± 0.0%; Percent Cytotoxicity (KB (oral); 1 μM): 9.5 ± 0.1% |
| CSCC[C@H](N)C(=O)NCc1ccc(C(=O)N[C@@H](Cc2ccc(O)cc2)C(=O)N[C@@H](CC(C)C)C(=O)O)o1 [SEQ ID NO: 14, Met-Saa1-Tyr-Leu] | 28.9 ± 2.2 | 26.9 ± 2.9 | 21.8 ± 1.0 | 15.0 ± 0.5 | 12.7 ± 0.4 | 11.0 ± 1.9 | 10.6 ± 1.1 | 6.0 ± 0.8 |  | 17.0 ± 1.7 | 13.9 ± 1.1 | 7.0 ± 0.3 | 14.5 ± 0.4 | 12.9 ± 0.5 |  |  |  |  |  | 13.0 ± 0.6 | Percent Cytotoxicity (ECV-304 (endothelial); peptide 100 nM): 6.0 ± 0.0% |
